The test system of data set [1] is SARS-CoV-2 (USA-WA1/2020 Isolate). In words: In vitro inhibition of SARS-CoV-2 in Calu-3 cells (immunostaining assay). The format is cell-based.
For data set [2] the following is noted: conventional Topotecan therapy; cited from earlier work.
The conditions of data set [3]: cited from earlier work.
A further data set can be described thus: in vitro. Conditions: human.

Read-outs that look alike come from different tables or passages of the source.

Molecule `CCC(CC)COC(=O)[C@H](C)N[P@](=O)(OC[C@H]1O[C@@](C#N)(c2ccc3c(N)ncnn23)[C@H](O)[C@@H]1O)Oc1ccccc1` [Remdesivir] gave an IC50 in data set [1] (Severe acute respiratory syndrome coronavirus 2, Calu-3) of 0.116 µM.
`CC[C@@]1(O)C(=O)OCc2c1cc1n(c2=O)Cc2cc3c(CN(C)C)c(O)ccc3nc2-1` [Topotecan]: in data set [2], the dose-limiting toxicity entry was “bone marrow suppression”. For the same molecule, the plasma elimination half-life in data set [3] (in vivo) is 2 to 3 h. Moreover, the “time of peak plasma concentrations” value in data set [3] (oral administration) was 1 to 2 h. Besides, in data set [1] (Calu-3 cells, FIG. 1), the “inhibition of SARS-CoV-2” value was “Complete or near complete inhibition”. For the same molecule, the IC50 in data set [1] (Severe acute respiratory syndrome coronavirus 2, Calu-3 cells, 24 h pretreatment, MOI 0.005, 48 h after inoculation, FIG. 1, read-out: IC50 of inhibition of SARS-CoV-2) was 0.035 µM; in data set [1] (Severe acute respiratory syndrome coronavirus 2, replicate experiments, Calu-3 cells, FIG. 3 and FIG. 4B, read-out: IC50), 0.00936 µM. Moreover, in “in vitro”, the CC50 is 0.169 µM.
